For assay [1], the system named is LEFCH (Leptochloa chinensis, Chinese sprangletop). Description: Postemergence foliar-applied weed control, direct seeded rice, greenhouse (Example I). It is filed as in vivo, Leptochloa chinensis (L.) Nees. The following applies: 22 DAA. In short, it runs like this: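 Greenhouse-grown plants (14 h photoperiod, 29/26 °C day/night) at first to fourth true leaf stage sprayed overhead at 187 L/ha with Compound A (acid equivalent basis) alone or mixed with sulfonylurea ALS inhibitors (active ingredient basis). Final spray contained 1.25% v/v crop oil concentrate; controls received solvent blank.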

For assay [2], the system named is IPOHE (Ipomoea hederacea, ivyleaf morningglory). Described as above. It is filed as in vivo, Ipomoea hederacea Jacq. The settings on record: 22 DAA. The source says:
Seeds or nutlets of the desired test plant species were planted in a soil matrix prepared by mixing a loam or sandy loam soil (e.g., 28.6 percent silt, 18.8 percent clay, and 52.6 percent sand, with a pH of about 5.8 and an organic matter content of about 1.8 percent) and calcareous grit in an 80 to 20 ratio. The soil matrix was contained in plastic pots with a volume of 1 quart and a surface area of 83.6 square centimeters (cm^2). When required to ensure good germination and healthy plants, a fungicide treatment and/or other chemical or physical treatment was applied. The plants were grown for 8-22 days in a greenhouse with an approximate 14 h photoperiod which was maintained at about 29° C. during the day and 26° C. during the night. Nutrients (Peters Excel® 15-5-15 5-Ca 2-Mg and iron chelate) were applied in the irrigation solution as needed and water was added on a regular basis. Supplemental lighting was provided with overhead metal halide 1000-Watt lamps as necessary. The plants were employed for testing when they reached the first through fourth true leaf stage.
Treatments consisted of the acid or esters of 4-amino-3-chloro-5-fluoro-6-(4-chloro-2-fluoro-3-methoxy-phenyl)pyridine-2-carboxylic acid (Compound A), each formulated as an SC, and various herbicidal components alone and in combination. Forms of compound A were applied on an acid equivalent basis.
Other herbicidal components were applied on an active ingredient basis and included acetolactate synthase (ALS)-inhibiting herbicides (sulfonylurea chemical class) azimsulfuron formulated as Gulliver®, bensulfuron-methyl formulated as Londax® 60DF, cyclosulfamuron (technical material), ethoxysulfuron formulated as Sunrice® 15 WDG, flazasulfuron formulated as Katana®, flucetosulfuron formulated as Sukedachi® 1KG G, foramsulfuron formulated as Option®, imazosulfuron formulated as Brazzos® WG, iodosulfuron-methyl-sodium formulated as Hussar®, metsulfuron-methyl formulated as Lorate®, nicosulfuron formulated as Accent®, orthosulfamuron formulated as Strada® WG, primisulfuron-methyl (technical material), propyrisulfuron formulated as Zeta One®, rimsulfuron formulated as Matrix® WG, sulfometuron-methyl formulated as Oust®, and trifloxysulfuron-sodium formulated as Monument® 75WG.
(§1) Treatment requirements were calculated based upon the rates being tested, the concentration of active ingredient or acid equivalent in the formulation, and a 12 mL application volume at a rate of 187 L/ha.
For treatments comprised of formulated compounds, measured amounts of compounds were placed individually in 25 mL glass vials and diluted in a volume of 1.25% (v/v) Agri-Dex® crop oil concentrated to obtain 12× stock solutions. […] Application solutions were prepared by adding an appropriate amount of each stock solution (e.g., 1 mL) and diluted to the appropriate final concentrations with the addition of 10 mL of an aqueous mixture of 1.25% (v/v) crop oil concentrate so that the final spray solutions contained 1.25+/−0.05% (v/v) Agrcrop oil concentrate.
For treatments comprised of formulated and technical compounds, weighed amounts of the technical materials were placed individually in 25 mL glass vials and dissolved in a volume of 97:3 v/v acetone/DMSO to obtain 12× stock solutions, and measured amounts of the formulated compounds were placed individually in 25 mL glass vials and diluted in a volume of 1.25% (v/v) crop oil concentrate to obtain 12× stock solutions. […] Application solutions were prepared by adding an appropriate amount of each stock solution (e.g., 1 mL) and diluted to the appropriate final concentrations with the addition of an appropriate amount of an aqueous mixture of 1.5% (v/v) crop oil concentrate so that the final spray solutions contained 1.25% (v/v) crop oil concentrate. […]

The subject of assay [3] is SETFA (Setaria faberi, giant foxtail). Description: Pre-emergence soil-applied weed control, greenhouse (Example V). The following applies: Table 59 (pre-emergence), 25 gai/ha alone. It is filed as in vivo, Setaria faberi Herrm.
Text: Seeds or nutlets of the desired test plant species were planted in a soil matrix prepared by mixing a loam soil (32 percent silt, 23 percent clay, and 45 percent sand, with a pH of about 6.5 and an organic matter content of about 1.9 percent) and calcareous grit in an 80 to 20 ratio. The soil matrix was contained in plastic pots with a volume of 1 quart and a surface area of 83.6 square centimeters (cm^2).
Treatments consisted of the benzyl ester of 4-amino-3-chloro-5-fluoro-6-(4-chloro-2-fluoro-3-methoxy-phenyl)pyridine-2-carboxylic acid (compound A) formulated as an SC (suspension concentrate) and various herbicidal components alone and in combination. Forms of compound A were applied on an acid equivalent basis.
Other herbicidal components were applied on an acid equivalent or active ingredient basis and included the acetolactate synthase (ALS)-inhibiting herbicide, flazasulfuron, formulated as Katana®.
as §1
For treatments comprised of formulated compounds, measured amounts of compounds were placed individually in 25 mL glass vials and diluted in a volume of 1.25% (v/v) Agri-Dex® crop oil concentrate (COC) to obtain 12× stock solutions. […] Application solutions were prepared by adding an appropriate amount of each stock solution (e.g., 1 mL) and diluted to the appropriate final concentrations with the addition of 10 mL of an aqueous mixture of 1.25% (v/v) COC so that the final spray solutions contained 1.25% (v/v) COC. […]
The treated and control pots were placed in a greenhouse and top watered as needed. […] After approximately 4 weeks, the condition of the test plants as compared with that of the untreated plants was determined visually and scored on a scale of 0 to 100 percent where 0 corresponds to no injury or growth inhibition and 100 corresponds to complete kill. […]

The test system of assay [4] is GALAP (Galium aparine, cleavers). Description: Post-emergence foliar-applied weed control in cereal crops, greenhouse (Example III). It is filed as in vivo, Galium aparine (L.). The following applies: Table 51, after 20-22 days, 10 gai/ha alone. The method, then: Seeds of the desired test plant species were planted in Sun Gro MetroMix® 306 planting mixture, which typically has a pH of 6.0 to 6.8 and an organic matter content of about 30 percent, in plastic pots with a surface area of 103.2 square centimeters (cm^2). When required to ensure good germination and healthy plants, a fungicide treatment and/or other chemical or physical treatment was applied. The plants were grown for 7-36 days in a greenhouse with an approximate 14 hour photoperiod which was maintained at about 18° C. during the day and 17° C. during the night. Nutrients and water were added on a regular basis and supplemental lighting was provided with overhead metal halide 1000-Watt lamps as necessary. […]
Measured aliquot of benzyl ester of 4-amino-3-chloro-5-fluoro-6-(4-chloro-2-fluoro-3-methoxy-phenyl)pyridine-2-carboxylic acid (Compound A) was placed in 25 milliliter (mL) glass vials and diluted in a volume of 1.25% (v/v) Agri-dex crop oil concentrated to obtain stock solutions. […]
The treated plants and control plants were placed in a greenhouse as described above and watered by sub-irrigation to prevent wash-off of the test compounds. After 20-22 days, the condition of the test plants as compared with that of the control plants was determined visually and scored on a scale of 0 to 100 percent where 0 corresponds to no injury and 100 corresponds to complete kill. […]

Assay [5] deals with LAMPU (Lamium purpureum, purple deadnettle). The description is as above. The following applies: Table 51, after 20-22 days, 10 gai/ha alone. It is filed as in vivo, Lamium purpureum (L.). How it is done: (§2) Seeds of the desired test plant species were planted in Sun Gro MetroMix® 306 planting mixture, which typically has a pH of 6.0 to 6.8 and an organic matter content of about 30 percent, in plastic pots with a surface area of 103.2 square centimeters (cm^2). When required to ensure good germination and healthy plants, a fungicide treatment and/or other chemical or physical treatment was applied. The plants were grown for 7-36 days in a greenhouse with an approximate 14 hour photoperiod which was maintained at about 18° C. during the day and 17° C. during the night. Nutrients and water were added on a regular basis and supplemental lighting was provided with overhead metal halide 1000-Watt lamps as necessary. The plants were employed for testing when they reached the second or third true leaf stage.
(§3) Treatments consisted of the benzyl ester of 4-amino-3-chloro-5-fluoro-6-(4-chloro-2-fluoro-3-methoxy-phenyl)pyridine-2-carboxylic acid (Compound A), formulated as an SC (suspension concentrate), and a second cereal herbicide alone and in combination.
(§4) Measured aliquot of benzyl ester of 4-amino-3-chloro-5-fluoro-6-(4-chloro-2-fluoro-3-methoxy-phenyl)pyridine-2-carboxylic acid (Compound A) was placed in 25 milliliter (mL) glass vials and diluted in a volume of 1.25% (v/v) Agri-dex crop oil concentrated to obtain stock solutions. Compound requirements are based upon a 12 mL application volume at a rate of 187 liters per hectare (L/ha). Spray solutions of the second cereal herbicide and experimental compound mixtures were prepared by adding the stock solutions to the appropriate amount of dilution solution to form 12 mL spray solution with active ingredients in two- and three-way combinations. Formulated compounds were applied to the plant material with an overhead Mandel track sprayer equipped with an 8002E nozzle calibrated to deliver 187 L/ha over an application area of 0.503 square meters (m^2) at a spray height of 18 inches (46 cm) above average plant canopy. Control plants were sprayed in the same manner with the solvent blank.
(§5) The treated plants and control plants were placed in a greenhouse as described above and watered by sub-irrigation to prevent wash-off of the test compounds. After 20-22 days, the condition of the test plants as compared with that of the control plants was determined visually and scored on a scale of 0 to 100 percent where 0 corresponds to no injury and 100 corresponds to complete kill.
(§6) Colby's equation was used to determine the herbicidal effects expected from the mixtures (Colby, S. R. 1967. Calculation of the synergistic and antagonistic response of herbicide combinations. Weeds 15:20-22.).
(§7) The following equation was used to calculate the expected activity of mixtures containing two active ingredients, A and B: Expected=A+B−(A×B/100)

In assay [6] the test system is VERPE (Veronica persica, bird's-eye speedwell). The assay is described as above. It counts as in vivo, Veronica persica Poir. The following applies: Table 51, after 20-22 days, 10 gai/ha alone. The method, then:
as §2, §3, §4, §5, §6, §7

Assay [7] concerns SIDSP (Sida spinosa, prickly sida). Briefly: Post-emergence herbicidal activity of mixtures in forage crops, greenhouse (Example IV). The settings on record: Table 58 (forage); foliar-applied; after approximately 21 days; 1.1 gai/ha alone. It is filed as in vivo, Sida spinosa L. How it is done:
as §2, with “Seeds or root cuttings” for “Seeds”, “126.6” for “103.2”, “14-60” for “7-36”, “approximately 28°” for “about 18°”, “24°” for “17°”, “BBCH13 to BBCH23” for “second or third true”
(§8) Treatments consisted of the benzyl ester of 4-amino-3-chloro-5-fluoro-6-(4-chloro-2-fluoro-3-methoxy-phenyl)pyridine-2-carboxylic acid (Compound A), formulated as a SC, and a second herbicide alone and in combination.
(§9) A measured aliquot of Compound A was placed in 25 milliliter (mL) glass vial and diluted in a volume of 1.25% (v/v) Agri-dex crop oil concentrated to obtain stock solutions. Compound requirements are based upon a 12 mL application volume at a rate of 187 liters per hectare (L/ha). Spray solutions of the second cereal herbicide and experimental compound mixtures were prepared by adding the stock solutions to the appropriate amount of dilution solution to form 12 mL spray solution with active ingredients in two- and three-way combinations. […]
(§10) The treated plants and control plants were placed in a greenhouse as described above and watered by sub-irrigation to prevent wash-off of the test compounds. After approximately 21 days, the condition of the test plants, as compared with that of the control plants, was determined visually and scored on a scale of 0 to 100 percent where 0 corresponds to no injury and 100 corresponds to complete kill. […]

The test system of assay [8] is POROL (Portulaca oleracea, portulaca). Described as above. It is filed as in vivo, Portulaca oleracea L. The settings on record: Table 58 (forage); foliar-applied; after approximately 21 days; 1.1 gai/ha alone. How it is done:
as §2, with “Seeds or root cuttings” for “Seeds”, “126.6” for “103.2”, “14-60” for “7-36”, “approximately 28°” for “about 18°”, “24°” for “17°”, “BBCH13 to BBCH23” for “second or third true”
as §8, §9, §10

Assay [9] has as its system CASOB (Cassia obtusifolia, sicklepod). Described as above. It is filed as in vivo, Cassia obtusifolia L. The settings on record: Table 58 (forage); foliar-applied; after approximately 21 days; 1.1 gai/ha alone. The method, then:
as §2, with “Seeds or root cuttings” for “Seeds”, “126.6” for “103.2”, “14-60” for “7-36”, “approximately 28°” for “about 18°”, “24°” for “17°”, “BBCH13 to BBCH23” for “second or third true”
as §8, §9, §10

3 compounds from patent publication US8871681B2, “Herbicidal compositions comprising 4-amino-3-chloro-5-fluoro-6-(4-chloro-2-fluoro-3-methoxyphenyl) pyridine-2-carboxylic acid or a derivative thereof and certain sulfonylureas” (Dow AgroSciences LLC, priority 2012, dated 2014) can be followed below.

`COc1cc(OC)nc(NC(=O)NS(=O)(=O)c2ncccc2C(F)(F)F)n1` [Flazasulfuron, N-[[(4,6-dimethoxy-2-pyrimidinyl)amino]carbonyl]-3-(trifluoromethyl)-2-pyridinesulfonamide, reference compound]: the “Visual Weed Control Obs” value amounted to 0% in [1] (25 gai/ha), 10% in assay [1] (50 gai/ha), 50% in [2] (50 gai/ha) and 50% in assay [2] (100 gai/ha). The “Visual Weed Control (%) Obs” value in assay [2] (100 gai/ha) was 50%. In assay [3], the “Visual Weed Control (%) - 27 DAA SETFA Obs” value is on record as 62%.
For the compound `COc1cc(OC)nc(NC(=O)NS(=O)(=O)N(C)S(C)(=O)=O)n1` [Amidosulfuron], the “Weed Control GALAP Obs” value in assay [4] is 48%. Also, the “Weed Control LAMPU Obs” value in assay [5] is 0%. Moreover, the “Weed Control VERPE Obs” value in assay [6] is given as 0%.
Turning to `COC(=O)c1ccccc1S(=O)(=O)NC(=O)Nc1nc(C)nc(OC)n1` [Metsulfuron ME], the “Weed Control SIDSP Obs” value in assay [7] is listed as 52%. Besides, the “Weed Control POROL Obs” value in assay [8] is recorded as 80%. Besides, in assay [9], the “Weed Control CASOB Obs” value stood at 8%.
